Measured values as given in patent publication US12612372B2, “Oxopyridazinyl-phenyl-carbonohydrazonoyl dicyanide compound and use thereof” (KOREA INSTITUTE OF SCIENCE AND TECHNOLOGY, priority 2020, dated 2026).

How the values were obtained:
CYP2D6 = target: T1, CYP2D6 (Homo sapiens, UniProt P10635); assay: CYP coenzyme activity in human liver microsomes, CYP2D6; format: in vitro ADME; details: 10 μM compound, human liver microsomes 0.25 mg/mL, substrate dextromethorphan, 15 minutes
T1 construct: human liver microsomes (0.25 mg/mL); from tissue; host or cells: human liver microsomes
T1 sequence (P10635 whole entry): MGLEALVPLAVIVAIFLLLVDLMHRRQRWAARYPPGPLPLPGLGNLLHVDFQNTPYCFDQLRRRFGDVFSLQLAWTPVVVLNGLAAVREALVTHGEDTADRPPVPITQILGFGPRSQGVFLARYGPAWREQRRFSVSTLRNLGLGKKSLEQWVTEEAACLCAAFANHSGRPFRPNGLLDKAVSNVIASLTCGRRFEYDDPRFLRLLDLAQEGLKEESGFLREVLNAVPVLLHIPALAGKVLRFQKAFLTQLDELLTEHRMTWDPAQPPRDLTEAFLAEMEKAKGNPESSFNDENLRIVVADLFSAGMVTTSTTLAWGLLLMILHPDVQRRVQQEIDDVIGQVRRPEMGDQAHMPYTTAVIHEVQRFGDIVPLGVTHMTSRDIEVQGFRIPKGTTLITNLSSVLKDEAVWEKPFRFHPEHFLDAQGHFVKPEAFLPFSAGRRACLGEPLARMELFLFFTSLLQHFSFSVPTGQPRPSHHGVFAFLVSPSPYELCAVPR
Description: (§1) Specifically, human liver microsomes (0.25 mg/mL), a 0.1 M phosphate buffer solution (pH 7.4), a substrate drug cocktail of five types of drug metabolism enzymes (50 μM phenacetin, 10 μM diclofenac, 100 μM S-mephenytoin, 5 μM dextromethorphan, and 2.5 μM midazolam), and the compound at a concentration of 0 μM or 10 μM were mixed and pre-cultured at 37° C. for 5 minutes, and then further cultured at 37° C. for 15 minutes together with an NADPH generation system solution added thereto. Thereafter, the reaction was terminated by adding an acetonitrile solution containing an internal standard material (terfenadine) and centrifuged for 5 minutes (14,000 rpm, 4° C.), and then a supernatant was injected into an LC-MS/MS system for simultaneous analysis of metabolites of the substrate drugs to thereby evaluate the inhibitory effects on drug metabolism.
(§2) Metabolites of each CYP coenzyme indicator drug generated through the reaction were analyzed using the Shimadzu Nexera XR system and TSQ Vantage (Thermo). In an HPLC column, Kinetex C18 (2.1 mm×100 mm, 2.6 μm particle size; Phenomenex, USA) was used, and mobile phases were (A) distilled water containing 0.1% formic acid and (B) acetonitrile containing 0.1% formic acid, and a gradient program shown in Table 3 was applied thereto.
(§3) The generated metabolites were quantified using a multiple reaction monitoring (MRM) quantification mode, and Xcalibur (version 1.6.1) was used for data analysis. In order to express the inhibitory effects of the novel compounds prepared according to the examples of the present invention on CYP coenzyme activity, CYP coenzyme activities (%) with respect to the control group not treated with any compound are shown in Table 4 below.

tau protein = target: T2, tau protein (Homo sapiens, UniProt P10636); assay: Tau-BiFC cell model, Forskolin-induced tau protein aggregation; format: cell-based; details: for Tau BiFC in cells Response (%, @10 μM): 10 μM compound, BiFC fluorescence relative to Forskolin-only group (100% tau protein-aggregated state), 48 hours
T2 construct: fused on or other part: Split Venus fragments VN173 and VC155, each fused to one copy of tau as BiFC reporter halves
T2 sequence (P10636 2-441 isoform P10636-8 limits assumed): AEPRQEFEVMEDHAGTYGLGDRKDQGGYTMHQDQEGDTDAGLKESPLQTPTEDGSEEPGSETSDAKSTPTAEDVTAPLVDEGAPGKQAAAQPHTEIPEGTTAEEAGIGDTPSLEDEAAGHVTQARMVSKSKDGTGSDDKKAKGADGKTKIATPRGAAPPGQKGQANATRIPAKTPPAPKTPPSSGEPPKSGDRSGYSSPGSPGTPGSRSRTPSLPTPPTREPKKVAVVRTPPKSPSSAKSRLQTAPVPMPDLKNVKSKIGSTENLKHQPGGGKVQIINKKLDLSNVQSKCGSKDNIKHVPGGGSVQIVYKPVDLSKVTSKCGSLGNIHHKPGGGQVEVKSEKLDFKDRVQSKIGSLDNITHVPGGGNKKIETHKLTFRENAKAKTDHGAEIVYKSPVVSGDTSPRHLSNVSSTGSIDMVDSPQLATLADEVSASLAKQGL
Description: (§4) In order to select novel tau protein aggregation—inhibiting substances, tau-BiFC cell model, in which formation of tau oligomers in living cells is easily observed, was used. Tau-BiFC cells were aliquoted into a 384-well plate. […] After 48 hours, nuclei in the cells were stained using Hoechst (at a treatment concentration of 2 μg/mL), and BiFC fluorescence intensity was automatically measured using Operetta (PerkinElmer) to count stained nuclei in each well out of the entire well plate. […] Furthermore, the degree of cytotoxicity induced by the newly synthesized compound was also measured based on the 100% cell viability of the group treated only with Forskolin as a reference, and the cytotoxicity value of each compound was calculated using the equation “(number of stained nuclei in group treated with compound/number of stained nuclei in group treated with Forskolin)×100”.
(§5) After 48 hours, tau protein aggregation reaction and degrees of cytotoxicity were analyzed by observing images of the cells. IC50 and toxicity of the compounds were analyzed by nonlinear regression analysis of Prism software (Graph Pad).

[1] = Liver microsome stability, human; format: in vitro ADME; details: human liver microsomes 0.25 mg/mL, 1 μM compound, 37° C., 30 minutes, NADPH
Description: (§6) The stability of liver microsomes due to the compounds prepared according to Examples 1 to 14 was confirmed. Specifically, four types of liver microsomes (human, dog, rat, and mouse, each 0.25 mg/mL), a 0.1 M phosphate buffer solution (pH 7.4), and each of the compounds at a concentration of 1 μM were mixed and pre-cultured at 37° C. for 5 minutes and further cultured at 37° C. for 30 minutes together with an NADPH generation system solution added thereto. Thereafter, the reaction was terminated by adding an acetonitrile solution containing an internal standard material (chlorpropamide) and centrifuged for 5 minutes (14,000 rpm, 4° C.), and then a supernatant was injected into an LC-MS/MS system for analysis of substrate drugs to thereby evaluate metabolic stability due to 8 types of compounds.
(§7) The amount of the substrate remaining after the reaction was analyzed using the Shimadzu Nexera XR system and TSQ Vantage (Thermo). In an HPLC column, Kinetex XB-C18 (2.1 mm×100 mm, particle size of 2.6 μm; Phenomenex, USA) was used, and mobile phases were (A) distilled water containing 0.1% formic acid and (B) acetonitrile containing 0.1% formic acid. Analyst software (version 1.6.3) and Xcalibur (version 1.6.1) were used for data analysis.

CYP3A4 = target: T3, CYP3A4 (Homo sapiens, UniProt P08684); assay: CYP coenzyme activity in human liver microsomes, CYP3A4; format: in vitro ADME; details: 10 μM compound, human liver microsomes 0.25 mg/mL, substrate midazolam, 15 minutes
T3 construct: human liver microsomes (0.25 mg/mL); from tissue; host or cells: human liver microsomes
T3 sequence (P08684 whole entry): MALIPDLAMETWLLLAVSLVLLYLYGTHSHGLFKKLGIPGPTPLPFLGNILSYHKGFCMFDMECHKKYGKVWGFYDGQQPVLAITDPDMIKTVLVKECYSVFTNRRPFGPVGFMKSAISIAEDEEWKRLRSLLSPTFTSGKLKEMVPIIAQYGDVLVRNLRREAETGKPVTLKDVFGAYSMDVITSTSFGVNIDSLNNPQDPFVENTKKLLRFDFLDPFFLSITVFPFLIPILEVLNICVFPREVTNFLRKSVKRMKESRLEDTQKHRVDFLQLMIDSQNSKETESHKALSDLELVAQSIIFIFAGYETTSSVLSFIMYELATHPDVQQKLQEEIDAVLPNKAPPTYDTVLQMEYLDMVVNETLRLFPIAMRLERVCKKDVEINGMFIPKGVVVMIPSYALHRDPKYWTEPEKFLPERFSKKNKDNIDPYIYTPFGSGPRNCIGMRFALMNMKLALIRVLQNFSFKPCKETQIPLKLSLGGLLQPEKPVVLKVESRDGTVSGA
Description: as §1, §2, §3

[2] = Liver microsome stability, dog; format: in vitro ADME; details: dog liver microsomes 0.25 mg/mL, 1 μM compound, 37° C., 30 minutes, NADPH
Description: as §6, §7

Tau-BiFC cells = assay: Cell viability (stained nuclei count) in tau-BiFC cells; details: 10 μM compound; stained nuclei relative to Forskolin-only group (100%), 48 hours
Description: as §4, §5

CYP2C9 = target: T4, CYP2C9 (Homo sapiens, UniProt P11712); assay: CYP coenzyme activity in human liver microsomes, CYP2C9; format: in vitro ADME; details: 10 μM compound, human liver microsomes 0.25 mg/mL, substrate diclofenac, 15 minutes
T4 construct: human liver microsomes (0.25 mg/mL); from tissue; host or cells: human liver microsomes
T4 sequence (P11712 whole entry): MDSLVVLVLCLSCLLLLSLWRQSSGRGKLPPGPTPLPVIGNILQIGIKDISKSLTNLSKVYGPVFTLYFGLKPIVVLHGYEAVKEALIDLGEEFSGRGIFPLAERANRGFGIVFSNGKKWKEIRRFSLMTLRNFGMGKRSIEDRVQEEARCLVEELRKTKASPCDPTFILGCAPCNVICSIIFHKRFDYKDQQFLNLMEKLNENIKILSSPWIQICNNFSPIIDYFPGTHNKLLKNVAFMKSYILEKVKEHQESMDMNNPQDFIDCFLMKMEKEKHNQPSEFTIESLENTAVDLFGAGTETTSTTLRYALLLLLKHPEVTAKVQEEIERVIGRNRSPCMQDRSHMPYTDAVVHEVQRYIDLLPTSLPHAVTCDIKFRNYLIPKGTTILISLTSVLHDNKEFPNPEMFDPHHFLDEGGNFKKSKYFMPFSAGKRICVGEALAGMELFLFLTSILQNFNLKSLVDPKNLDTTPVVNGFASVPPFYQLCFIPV
Description: as §1, §2, §3

CYP1A2 = target: T5, CYP1A2 (Homo sapiens, UniProt P05177); assay: CYP coenzyme activity in human liver microsomes, CYP1A2; format: in vitro ADME; details: 10 μM compound, human liver microsomes 0.25 mg/mL, substrate phenacetin, 15 minutes
T5 construct: human liver microsomes (0.25 mg/mL); from tissue; host or cells: human liver microsomes
T5 sequence (P05177 1-516): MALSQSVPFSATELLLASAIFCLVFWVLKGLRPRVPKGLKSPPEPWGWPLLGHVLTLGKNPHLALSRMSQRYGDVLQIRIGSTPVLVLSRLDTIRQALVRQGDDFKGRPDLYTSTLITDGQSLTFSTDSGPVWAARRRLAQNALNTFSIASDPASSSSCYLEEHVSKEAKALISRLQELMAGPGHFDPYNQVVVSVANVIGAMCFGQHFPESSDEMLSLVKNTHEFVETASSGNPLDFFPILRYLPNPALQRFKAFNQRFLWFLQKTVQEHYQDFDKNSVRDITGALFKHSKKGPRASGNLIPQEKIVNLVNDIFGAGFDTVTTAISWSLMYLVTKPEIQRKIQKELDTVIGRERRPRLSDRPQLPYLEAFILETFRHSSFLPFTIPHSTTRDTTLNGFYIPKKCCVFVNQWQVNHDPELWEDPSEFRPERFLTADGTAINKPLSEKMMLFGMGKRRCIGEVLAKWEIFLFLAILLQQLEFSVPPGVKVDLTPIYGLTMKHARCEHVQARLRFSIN
Description: as §1, §2, §3

[3] = Liver microsome stability, rat; format: in vitro ADME; details: rat liver microsomes 0.25 mg/mL, 1 μM compound, 37° C., 30 minutes, NADPH
Description: as §6, §7

CYP2C19 = target: T6, CYP2C19 (Homo sapiens, UniProt P33261); assay: CYP coenzyme activity in human liver microsomes, CYP2C19; format: in vitro ADME; details: 10 μM compound, human liver microsomes 0.25 mg/mL, substrate S-mephenytoin, 15 minutes
T6 construct: human liver microsomes (0.25 mg/mL); from tissue; host or cells: human liver microsomes
T6 sequence (P33261 whole entry): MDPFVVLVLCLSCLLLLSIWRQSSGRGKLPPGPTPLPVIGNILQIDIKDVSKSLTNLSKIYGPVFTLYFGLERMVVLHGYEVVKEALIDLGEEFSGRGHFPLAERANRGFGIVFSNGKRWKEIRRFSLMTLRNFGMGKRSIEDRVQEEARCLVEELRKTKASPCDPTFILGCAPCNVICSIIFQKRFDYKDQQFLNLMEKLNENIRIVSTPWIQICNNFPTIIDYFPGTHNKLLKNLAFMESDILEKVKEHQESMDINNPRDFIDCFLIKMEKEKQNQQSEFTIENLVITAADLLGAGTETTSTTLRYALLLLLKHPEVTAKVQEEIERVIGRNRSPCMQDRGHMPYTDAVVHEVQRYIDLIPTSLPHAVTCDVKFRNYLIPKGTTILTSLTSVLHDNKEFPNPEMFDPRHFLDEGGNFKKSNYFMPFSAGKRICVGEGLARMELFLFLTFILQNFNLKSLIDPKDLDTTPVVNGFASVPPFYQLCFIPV
Description: as §1, §2, §3

[4] = Liver microsome stability, mouse; format: in vitro ADME; details: mouse liver microsomes 0.25 mg/mL, 1 μM compound, 37° C., 30 minutes, NADPH
Description: as §6, §7

Row | Structure (SMILES) | CYP2D6 activity (%) with respect to control group not treated with any compound (CYP2D6) [%] | IC50 (tau protein) [nM] | Tau BiFC in cells Response (%, @10 μM) (tau protein) [%] | Human (%) amount remaining after the reaction [1] [%] | CYP3A4 activity (%) with respect to control group not treated with any compound (CYP3A4) [%] | Dog (%) amount remaining after the reaction [2] [%] | Cell viability (%, @10 μM) (Tau-BiFC cells) [%] | CYP2C9 activity (%) with respect to control group not treated with any compound (CYP2C9) [%] | CYP1A2 activity (%) with respect to control group not treated with any compound (CYP1A2) [%] | Rat (%) amount remaining after the reaction [3] [%] | CYP2C19 activity (%) with respect to control group not treated with any compound (CYP2C19) [%] | Mouse (%) amount remaining after the reaction [4] [%]
1 | CC1CC(=O)N(CC(F)(F)F)N=C1c1ccc(NN=C(C#N)C#N)cc1 (stereo not drawn) [Example 4, (4-(4-methyl-6-oxo-1-(2,2,2-trifluoroethyl)-1,4,5,6-tetrahydropyridazin-3-yl)phenyl)carbonohydrazonoyl dicyanide] | 62.1 | 450 | 0 | 98.2 | 74.2 | 95.6 | 98.7 | 55.6 | 74.8 | 96.8 | 45.5 | 89
2 | COCCN1N=C(c2ccc(NN=C(C#N)C#N)cc2)C(C)CC1=O (stereo not drawn) [Example 5, (4-(1-(2-methoxyethyl)-4-methyl-6-oxo-1,4,5,6-tetrahydropyridazin-3-yl)phenyl)carbonohydrazonoyl dicyanide] | 70.4 | 90 | 15.6 | 30.9 | 74.2 | >100 | 95.7 | 71.5 | 70 | 90.9 | 63.4 | 94.9
3 | CC1CC(=O)N(C2CC2)N=C1c1ccc(NN=C(C#N)C#N)cc1 (stereo not drawn) [Example 6, (4-(1-cyclopropyl-4-methyl-6-oxo-1,4,5,6-tetrahydropyridazin-3-yl)phenyl)carbonohydrazonoyl dicyanide] | 72.6 | 70 | 0 | 85 | 79.5 | 99.5 | 62.9 | 74.2 | 78.6 | 95.8 | 74.2 | 92.7
